Structures are written as SMILES.

In test [1] the test system is Erysiphe graminis forma specialis tritici. The test can be described thus: Activity against powdery mildew of wheat (protective, wheat seedlings cv. Frühgold). The test is classed as in vivo. The settings on record: single active ingredient, 7 days. From the text:
The active ingredients, separately or together, were formulated as a 10% emulsion in a mixture of 63% by weight of cyclohexanone and 27% by weight of emulsifier, and diluted with water to the desired concentration. […]
Activity against powdery mildew of wheat
Leaves of wheat seedlings cv. “Frühgold” which had been grown in pots were sprayed to runoff point with an aqueous preparation of active ingredient which had been prepared from a stock solution comprising 10% of active ingredient, 63% of cyclohexanone and 27% of emulsifier and, 24 hours after the spraycoating had dried on, dusted with spores of powdery mildew of wheat (Erysiphe graminis forma specialis tritici). The test plants were subsequently placed in a greenhouse at from 20 to 24° C. and a relative atmospheric humidity of 60 to 90%. After 7 days, the extent of mildew development was determined visually as percent infection of the total leaf area.
(§1) The visually determined values for the percentage of infected leaf area were converted into efficacies as percent of the untreated control. Efficacy 0 means the same disease level as in the untreated control, efficacy 100 means 0% disease. The expected efficacies for active ingredient combinations were determined using Colby's formula (Colby, S. R. “Calculating synergistic and antagonistic responses of herbicide combinations”, Weeds, 15, p. 20-22, 1967) and compared with the observed efficacies.

The subject of a further test is Puccinia recondita. The test can be described thus: Curative action against Puccinia recondita on wheat (brown rust of wheat). The class given is in vivo. The following applies: single active ingredient, 7 days. Here is the method: The active ingredients, separately or together, were formulated as a 10% emulsion in a mixture of 63% by weight of cyclohexanone and 27% by weight of emulsifier, and diluted with water to the desired concentration.
The expected efficacies of the mixtures of the active ingredients were determined using Colby's formula [R. S. Colby, Weeds 15, 20-22 (1967)] and compared with the observed efficacies.
Colby's formula: E=x+y−x·y/100
E expected efficacy, expressed in % of the untreated control, when using the mixture, disclosed in DE Appl. 19617232.2, of the active ingredients I and II (=active ingredient mixture A) and the active ingredients III at the concentrations a and c […]
x efficacy, expressed in % of the untreated control, when using a mixture, disclosed in DE Appl. 19617232.2, of the active ingredients I and II at a concentration of a y efficacy, expressed in % of the untreated control, when using active ingredient III at a concentration of c Curative action against Puccinia recondita on wheat (brown rust of wheat) Leaves of wheat seedlings cv. “Frühgold” which had been grown in pots were dusted with spores of brown rust (Puccinia recondita). The pots were then kept for 24 hours in a chamber of high atmospheric humidity (90 to 95%) at 20 to 22° C. During this time, the spores germinated and the germinal tubes penetrated into the leaf tissue. The next day, the infected plants were sprayed to runoff point with an aqueous preparation of active ingredient which had been prepared from a stock solution comprising 10% of active ingredient, 63% of cyclohexanone and 27% of emulsifier. After the spray coating had dried on, the test plants were cultivated in a greenhouse at temperatures from 20 to 22° C. and at 65 to 70% relative atmospheric humidity for 7 days. The extent of the rust fungus development on the leaves was then determined.
as §1

Regarding `CC(C)(C)C(O)(CCc1ccc(Cl)cc1)n1cncn1` (stereo not drawn) [III.27, 1-(4-chlorophenyl)-4,4-dimethyl-3-(1H-1,2,4-triazol-1yl)pentan-3-ol], the “Efficacy in % of the untreated control” value in test [1] (0.31 ppm in the spray liquor) came to 8%; in test [1] (1.25 ppm in the spray liquor), 39%; in the test on Puccinia recondita (0.31 ppm in the spray liquor) it was 0%; in the test on Puccinia recondita (1.25 ppm in the spray liquor) it was 0%.

Consider `CCCN(CCOc1c(Cl)cc(Cl)cc1Cl)C(=O)n1ccnc1` [III.23, N-propyl-N-[(2,4,6-trichlorophenoxy)ethyl]imidazole-1-carboxamide], for which the “Efficacy in % of the untreated control” value (in test [1] (0.31 ppm in the spray liquor); in test [1] (1.25 ppm in the spray liquor); with Puccinia recondita (0.31 ppm in the spray liquor); in the test on Puccinia recondita (1.25 ppm in the spray liquor)) was 0% in each case.

As to `CCCC1COC(Cn2cncn2)(c2ccc(Cl)cc2Cl)O1` (racemic) [III.24, (±)-1-{[2-(2,4-dichlorophenyl)-4-propyl-1,3-dioxolan-2-yl]methyl}-1H-1,2,4-triazole], the “Efficacy in % of the untreated control” value in test [1] (0.31 ppm in the spray liquor) was 8%; in test [1] (1.25 ppm in the spray liquor) it was 8%; in the test on Puccinia recondita (0.31 ppm in the spray liquor) it was 0%; with Puccinia recondita (1.25 ppm in the spray liquor) it was 0%.

For `C[Si](Cn1cncn1)(c1ccc(F)cc1)c1ccc(F)cc1` [III.12, bis-(4-fluorophenyl)(methyl)-(1H-1,2,4-triazol-1-ylmethyl)silane], the “Efficacy in % of the untreated control” value in the test with Puccinia recondita (0.31 ppm in the spray liquor) and in the test with Puccinia recondita (1.25 ppm in the spray liquor) was 0% in each case.

For `Fc1ccc([C@]2(Cn3cncn3)O[C@@H]2c2ccccc2Cl)cc1` (racemic) [III.8, (2RS, 3RS)-1-[3-(2-chlorophenyl)-2,3-epoxy-2-(4-fluorophenyl)propyl]-1H-1,2,4-triazole], the “Efficacy in % of the untreated control” value with Puccinia recondita (0.31 ppm in the spray liquor) amounted to 0%.

Values taken from patent US6369090B1, “Fungicidal mixture” (BASF Aktiengesellschaft, priority 1997, dated 2002).
